Source: article PMC7468911 (Nutrients, 2020)

biological target: T1, ABCC11 (Homo sapiens, UniProt Q96J66); test: inhibition of ATP-dependent [3H]-DHEA-S transport in plasma membrane vesicles from ABCC11-expressing […] cells; type: biochemical; details: not given
T1 construct: full-length human ABCC11 WT
T1 sequence (Q96J66 whole entry): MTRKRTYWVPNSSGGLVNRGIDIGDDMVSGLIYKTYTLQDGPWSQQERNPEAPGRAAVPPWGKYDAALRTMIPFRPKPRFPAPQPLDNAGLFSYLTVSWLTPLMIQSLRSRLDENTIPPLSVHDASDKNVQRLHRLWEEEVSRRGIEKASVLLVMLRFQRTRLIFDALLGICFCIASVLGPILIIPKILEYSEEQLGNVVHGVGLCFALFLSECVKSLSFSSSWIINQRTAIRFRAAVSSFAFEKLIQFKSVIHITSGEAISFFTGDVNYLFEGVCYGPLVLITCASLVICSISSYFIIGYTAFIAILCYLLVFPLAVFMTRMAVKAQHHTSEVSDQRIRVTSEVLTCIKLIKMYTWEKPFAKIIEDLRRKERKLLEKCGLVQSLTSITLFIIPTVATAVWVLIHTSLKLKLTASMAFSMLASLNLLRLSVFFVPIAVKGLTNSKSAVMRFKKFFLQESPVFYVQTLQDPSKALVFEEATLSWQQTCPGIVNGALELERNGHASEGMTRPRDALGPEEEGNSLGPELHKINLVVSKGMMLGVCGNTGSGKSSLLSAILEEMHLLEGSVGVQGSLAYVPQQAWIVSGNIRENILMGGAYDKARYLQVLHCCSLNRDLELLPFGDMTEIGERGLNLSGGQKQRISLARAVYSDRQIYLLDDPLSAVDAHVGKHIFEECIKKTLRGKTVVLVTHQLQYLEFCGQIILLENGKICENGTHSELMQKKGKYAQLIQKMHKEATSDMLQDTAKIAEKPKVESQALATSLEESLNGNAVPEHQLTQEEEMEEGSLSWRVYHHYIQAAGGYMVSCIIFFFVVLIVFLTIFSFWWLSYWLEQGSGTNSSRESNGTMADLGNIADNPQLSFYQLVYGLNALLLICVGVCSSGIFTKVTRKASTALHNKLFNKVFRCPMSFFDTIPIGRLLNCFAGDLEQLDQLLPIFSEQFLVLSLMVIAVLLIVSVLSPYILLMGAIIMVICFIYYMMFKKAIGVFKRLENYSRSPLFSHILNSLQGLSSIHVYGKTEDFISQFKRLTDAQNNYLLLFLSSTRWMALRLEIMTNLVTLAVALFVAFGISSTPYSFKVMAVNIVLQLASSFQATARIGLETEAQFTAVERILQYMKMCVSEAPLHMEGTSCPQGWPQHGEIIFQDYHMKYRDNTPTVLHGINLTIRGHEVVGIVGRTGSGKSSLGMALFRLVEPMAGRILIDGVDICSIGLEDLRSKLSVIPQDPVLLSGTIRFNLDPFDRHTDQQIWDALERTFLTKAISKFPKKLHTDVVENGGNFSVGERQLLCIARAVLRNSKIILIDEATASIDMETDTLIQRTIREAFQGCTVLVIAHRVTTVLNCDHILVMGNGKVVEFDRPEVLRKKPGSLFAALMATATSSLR

In the case of `O=c1c(-c2ccc(O)cc2)coc2cc(O)cc(O)c12` [genistein], the IC50 is reported as 61.5 µM.

biological target: T1, ABCC11; test: cell-based; details: read-out: ABCC11-Mediated DHEA-S Transport (% of Control)

`O=c1cc(-c2ccc(O)c(O)c2)oc2cc(O)cc(O)c12` [compound 4, luteolin] and `O=c1c(O)c(-c2ccc(O)c(O)c2)oc2cc(O)c(O)c(O)c12` [compound 16, quercetagetin] are the same in remaining activity at 100 µM: 0% for the first, 0% for the second.

First: COc1ccc(-c2cc(=O)c3c(OC)c(OC)c(OC)c(OC)c3o2)cc1OC [compound 5, nobiletin]
Second: O=C(O[C@@H]1Cc2c(O)cc(O)cc2O[C@H]1c1ccc(O)c(O)c1)c1cc(O)c(O)c(O)c1 [compound 23, (−)-catechin gallate]
The remaining activity at 100 µM of the first is lower: 0% for the first, 10.5 ± 6% for the second.

Going from `O=C(/C=C/c1ccc(O)cc1)c1c(O)cc(O)cc1O` [compound 19, naringenin chalcone] to `O=C(CCc1ccc(O)cc1)c1c(O)cc(O)cc1O` [compound 20, phloretin], the remaining activity at 100 µM falls from 12.4 ± 4.2% to 0.6 ± 3.9%.

biological target: T1, ABCC11; test: biochemical; parameters: Vesicle transport assay: ATP-dependent uptake of radiolabeled DHEA-S into ABCC11-expressing membrane vesicles, rapid filtration, scintillation counting; details: ABCC11-mediated DHEA-S transport, % of control, 5 min, 37 °C
Excerpt: The inhibitory effects of the various target extracts and compounds on the ABCC11 function were examined using the in vitro vesicle transport assay, a well-established method to quantitatively evaluate ABC transporter function. For this purpose, the ATP-dependent transport of [1,2,6,7-^3H(N)]-dehydroepiandrosterone sulfate (DHEA-S) (PerkinElmer, Waltham, MA, USA), which is an ABCC11 substrate, into the ABCC11-expressing and control plasma membrane vesicles was quantified following our previous study with some minor modifications in the rapid filtration technique, as described below. In brief, the plasma membrane vesicles (0.25 mg/mL or indicated concentrations) were incubated with [1,2,6,7-^3H(N)]-DHEA-S (100 nM or indicated concentrations) in a reaction mixture (total 20 μL: 10 mM Tris/HCl, 250 mM sucrose, 10 mM MgCl2, 10 mM creatine phosphate, 1 mg/mL creatine phosphokinase, 50 mM ATP or AMP as a substitute of ATP, and pH 7.4) for 5 min at 37 °C, either without (i.e., with only vehicle control) or with the individual target fractions/authentic chemicals at the indicated concentrations. As the vehicle control, 1% water was used for plant extracts; 1% methanol (Nacalai Tesque) or 1% dimethyl sulfoxide (DMSO; Nacalai Tesque) was used for the individual target fractions, as described below. Since stock solutions of authentic chemicals were prepared with DMSO at 10 mM, 1% DMSO was employed as the vehicle control for them. After incubation, the reaction mixture was mixed with 980 μL of an ice-cold stop buffer (2 mM EDTA, 0.25 M sucrose, 0.1 M NaCl, 10 mM Tris-HCl, and pH 7.4) and rapidly filtered on a membrane filter (MF-Millipore Membrane (HAWP02500; Millipore, Tokyo, Japan) for extract screening or Whatman™ Grade GF/F Glass Microfiber Filter Paper (GE Healthcare) for the other experiments). After washing with 5 mL of the ice-cold stop buffer three times, the plasma membrane vesicles trapped on the membrane filter were dissolved in Clear-sol II (Nacalai Tesque). Then, the radioactivity incorporated into the plasma membrane vesicles was measured with a liquid scintillator (Tri-Carb 3110TR; PerkinElmer). The transport activity in each group was calculated as the incorporated clearance (μL/mg protein/min = incorporated level of DHEA-S (disintegrations per minute (DPM)/mg protein/min)/DHEA-S level in the incubation mixture (DPM/μL)). ATP-dependent DHEA-S transport was calculated by the difference in transport activity with and without ATP. Similarly, ABCC11-mediated DHEA-S transport activity was calculated by subtracting the ATP-dependent DHEA-S transport activity of control plasma membrane vesicles from that of ABCC11-expressing ones. Unless otherwise indicated, effects of the target fractions/compounds on the ATP-dependent DHEA-S transport activity were also examined for the control plasma membrane vesicles.

`Oc1cc(O)c2c(c1)O[C@H](c1cc(O)c(O)c(O)c1)[C@H](O)C2` [(−)-Epigallocatechin] and `Oc1cc(O)c2c(c1)O[C@H](c1cc(O)c(O)c(O)c1)[C@@H](O)C2` [(+)-Gallocatechin] are within error of each other in remaining activity at 100 µM: 83.6 ± 29% for the first, 87.6 ± 27.6% for the second.

Going from `O=c1c(O)c(-c2ccccc2)oc2ccccc12` [3-Hydroxyflavone] to `O=c1c(O)c(-c2ccccc2)oc2cc(O)cc(O)c12` [Galangin], the remaining activity at 100 µM falls from 91.7 ± 1.1% to 63.6 ± 5.9%.

`COc1ccc([C@@H]2CC(=O)c3c(O)cc(O)cc3O2)cc1O` [Hesperetin] and `O=C1C[C@@H](c2ccc(O)cc2)Oc2cc(O)cc(O)c21` [Naringenin] are within error of each other in remaining activity at 100 µM: 5.2 ± 26.9% for the first, 38.4 ± 31.6% for the second.

`O=C1c2c(O)cc(O)cc2O[C@H](c2cc(O)c(O)c(O)c2)[C@H]1O` [Dihydromyricetin] and `O=C1c2c(O)cc(O)cc2O[C@H](c2ccc(O)c(O)c2)[C@H]1O` [Taxifolin] are within error of each other in remaining activity at 100 µM: 56.9 ± 23.4% for the first, 43.2 ± 26% for the second.

`O=c1c(O)c(-c2ccc(O)cc2)oc2cc(O)cc(O)c12` [Kaempferol] and `O=c1c(O)c(-c2ccc(O)cc2O)oc2cc(O)cc(O)c12` [Morin] are within error of each other in remaining activity at 100 µM: 42.8 ± 1% for the first, 41.5 ± 3.4% for the second.

`Oc1cc(O)c2c(c1)O[C@H](c1ccc(O)c(O)c1)[C@@H](O)C2` [(+)-Catechin] and `Oc1cc(O)c2c(c1)O[C@H](c1ccc(O)c(O)c1)[C@H](O)C2` [(−)-Epicatechin] are within error of each other in remaining activity at 100 µM: 91.9 ± 5.9% for the first, 85.2 ± 24.4% for the second.

Compared with `COc1cc(O)cc(O)c1C(=O)/C=C/c1ccccc1` [Cardamonin], `COc1cc(O)c(CC=C(C)C)c(O)c1C(=O)/C=C/c1ccc(O)cc1` [Xanthohumol] is lower in remaining activity at 100 µM: 73.4 ± 10.8% for the first, 19.7 ± 13.6% for the second.

First: O=C(O[C@@H]1Cc2c(O)cc(O)cc2O[C@H]1c1cc(O)c(O)c(O)c1)c1cc(O)c(O)c(O)c1 [(−)-Gallocatechin gallate]
Second: O=C(O[C@@H]1Cc2c(O)cc(O)cc2O[C@@H]1c1cc(O)c(O)c(O)c1)c1cc(O)c(O)c(O)c1 [(−)-Epigallocatechin gallate]
The remaining activity at 100 µM of the first is lower: 24 ± 2.5% for the first, 37.5 ± 7% for the second.

`O=c1c(O)c(-c2ccc(O)c(O)c2)oc2c(O)c(O)cc(O)c12` [Gossypetin] and `O=c1c(O)c(-c2ccc(O)c(O)c2)oc2cc(O)cc(O)c12` [Quercetin] are within error of each other in remaining activity at 100 µM: 46 ± 8.4% for the first, 34.6 ± 18.3% for the second.

`O=c1c(O)c(-c2ccc(O)c(O)c2)oc2cc(O)ccc12` [Fisetin] and `O=c1cc(-c2ccc(O)cc2)oc2cc(O)cc(O)c12` [Apigenin] are within error of each other in remaining activity at 100 µM: 37.7 ± 1% for the first, 25.3 ± 12.5% for the second.
